According to patent US10670605B2, “Cysteine reactive probes and uses thereof” (The Scripps Research Institute, priority 2015, dated 2020):
Where “and” joins values, the source holds several entries; their conditions need not be identical. Equal entries are not always repeated.

Experiments:
Experiment in all cases: Competitive isoTOP-ABPP, cell lysates
Type in all cases: binding
[1] = biological target: T1, ACAT1 C413 (P24752) (Homo sapiens, UniProt P24752); settings: for isoTOP-ABPP reactivity ratio, P24752_C413 / isoTOP-ABPP reactivity profile ratio, P24752_C413: 500 μm
T1 sequence (P24752 34-427): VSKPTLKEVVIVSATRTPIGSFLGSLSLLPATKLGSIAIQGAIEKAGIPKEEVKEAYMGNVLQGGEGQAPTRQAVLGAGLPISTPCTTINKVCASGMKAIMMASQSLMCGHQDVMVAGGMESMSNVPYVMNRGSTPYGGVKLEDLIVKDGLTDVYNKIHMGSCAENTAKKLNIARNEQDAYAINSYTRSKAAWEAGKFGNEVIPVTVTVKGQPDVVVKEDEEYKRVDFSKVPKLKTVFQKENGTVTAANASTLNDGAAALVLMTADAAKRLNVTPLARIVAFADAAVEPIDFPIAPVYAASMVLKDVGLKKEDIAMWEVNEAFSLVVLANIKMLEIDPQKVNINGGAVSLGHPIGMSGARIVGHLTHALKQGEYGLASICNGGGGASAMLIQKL

[2] = biological target: T2, IRF4 C194 (Q15306) (Homo sapiens, UniProt Q15306); settings: for isoTOP-ABPP ratio (reactivity profile), Q15306_C194: 500 μm in-vitro ramos; for isoTOP-ABPP reactivity ratio, Q15306_C194 / isoTOP-ABPP reactivity profile ratio, Q15306_C194: 500 μm, in-vitro_ramos
T2 sequence (Q15306 1-451): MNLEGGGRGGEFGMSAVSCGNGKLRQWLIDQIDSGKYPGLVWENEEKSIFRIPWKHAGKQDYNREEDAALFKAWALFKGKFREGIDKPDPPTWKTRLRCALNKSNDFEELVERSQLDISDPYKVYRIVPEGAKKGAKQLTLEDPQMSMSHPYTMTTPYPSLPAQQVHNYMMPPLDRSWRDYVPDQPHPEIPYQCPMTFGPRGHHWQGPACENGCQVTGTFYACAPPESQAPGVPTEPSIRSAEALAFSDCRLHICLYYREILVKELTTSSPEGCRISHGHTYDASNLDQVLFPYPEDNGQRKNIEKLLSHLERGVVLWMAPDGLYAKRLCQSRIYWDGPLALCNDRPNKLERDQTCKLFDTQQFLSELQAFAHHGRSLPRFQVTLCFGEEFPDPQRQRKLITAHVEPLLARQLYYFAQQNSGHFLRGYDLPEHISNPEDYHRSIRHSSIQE

[3] = biological target: T3, IDH2 C308 (P48735) (Homo sapiens, UniProt P48735); settings: for isoTOP-ABPP reactivity ratio, P48735_C308 / isoTOP-ABPP reactivity profile ratio, P48735_C308: 500 μm
T3 sequence (P48735 40-452): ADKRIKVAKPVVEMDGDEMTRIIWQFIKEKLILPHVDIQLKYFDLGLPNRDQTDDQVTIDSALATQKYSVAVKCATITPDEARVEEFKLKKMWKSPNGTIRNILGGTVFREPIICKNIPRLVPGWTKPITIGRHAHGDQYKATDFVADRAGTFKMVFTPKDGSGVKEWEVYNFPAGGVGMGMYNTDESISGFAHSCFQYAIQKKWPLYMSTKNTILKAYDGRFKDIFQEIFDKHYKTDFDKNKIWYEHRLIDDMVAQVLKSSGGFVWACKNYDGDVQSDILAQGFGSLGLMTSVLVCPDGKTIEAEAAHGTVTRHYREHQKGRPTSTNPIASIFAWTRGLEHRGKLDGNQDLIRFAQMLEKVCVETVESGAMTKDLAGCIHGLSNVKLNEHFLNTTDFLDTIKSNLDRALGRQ

[4] = biological target: T4, UBE2S C118 (Q16763) (Homo sapiens, UniProt Q16763); settings: for isoTOP-ABPP reactivity ratio, Q16763_C118 / isoTOP-ABPP reactivity profile ratio, Q16763_C118: 500 μm
T4 sequence (Q16763 1-222): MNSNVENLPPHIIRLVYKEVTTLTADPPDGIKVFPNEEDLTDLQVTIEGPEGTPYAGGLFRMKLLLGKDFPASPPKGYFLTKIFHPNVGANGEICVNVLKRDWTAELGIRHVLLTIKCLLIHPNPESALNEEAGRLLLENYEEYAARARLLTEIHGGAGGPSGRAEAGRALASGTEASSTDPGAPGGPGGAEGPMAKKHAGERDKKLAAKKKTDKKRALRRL

[5] = biological target: T5, ACAT1 C126 (P24752) (Homo sapiens, UniProt P24752); settings: for isoTOP-ABPP reactivity ratio, P24752_C126 / isoTOP-ABPP reactivity profile ratio, P24752_C126: 500 μm
T5 sequence (P24752 34-427): T1 sequence (P24752 34-427)

[6] = biological target: T6, ACAT1 C119 (P24752) (Homo sapiens, UniProt P24752); settings: for isoTOP-ABPP reactivity ratio, P24752_C119 / isoTOP-ABPP reactivity profile ratio, P24752_C119: 500 μm
T6 sequence (P24752 34-427): T1 sequence (P24752 34-427)

SMILES: CC(C)CCOCCNC(=O)CCl [compound 27]
- isoTOP-ABPP ratio (reactivity profile), P24752_C413 ([1]; 500 μm in-vitro ramos): 1.3
- isoTOP-ABPP ratio (reactivity profile), P24752_C413 ([1]; 500 μm in-vitro ramos_231): 0.9 and 1.1
- isoTOP-ABPP ratio (reactivity profile), Q15306_C194 [2]: 1.0
- isoTOP-ABPP ratio (reactivity profile), P48735_C308 ([3]; 500 μm in-vitro ramos_231): 1.9 and 1.0
- isoTOP-ABPP ratio (reactivity profile), Q16763_C118 ([4]; 500 μm in-vitro ramos): 0.9
- isoTOP-ABPP ratio (reactivity profile), Q16763_C118 ([4]; 500 μm in-vitro ramos_231): 0.8
- isoTOP-ABPP ratio (reactivity profile), P24752_C126 ([5]; 500 μm in-vitro ramos): 1.3
- isoTOP-ABPP ratio (reactivity profile), P24752_C126 ([5]; 500 μm in-vitro ramos_231): 0.9 and 1.0
- isoTOP-ABPP ratio (reactivity profile), P24752_C119 ([6]; 500 μm in-vitro ramos): 1.0
- isoTOP-ABPP ratio (reactivity profile), P24752_C119 ([6]; 500 μm in-vitro ramos_231): 0.9 and 1.0

SMILES: COc1ccccc1OCCNC(=O)CCl [compound 28]
- isoTOP-ABPP ratio (reactivity profile), P24752_C413 ([1]; 500 μm in-vitro ramos): 1.4
- isoTOP-ABPP ratio (reactivity profile), P24752_C413 ([1]; 500 μm in-vitro ramos_231): 1.2
- isoTOP-ABPP ratio (reactivity profile), Q15306_C194 [2]: 1.1
- isoTOP-ABPP ratio (reactivity profile), P48735_C308 ([3]; 500 μm in-vitro ramos_231): 0.9
- isoTOP-ABPP ratio (reactivity profile), Q16763_C118 ([4]; 500 μm in-vitro ramos): 0.8
- isoTOP-ABPP ratio (reactivity profile), Q16763_C118 ([4]; 500 μm in-vitro ramos_231): 1.0
- isoTOP-ABPP ratio (reactivity profile), P24752_C126 ([5]; 500 μm in-vitro ramos): 1.6
- isoTOP-ABPP ratio (reactivity profile), P24752_C126 ([5]; 500 μm in-vitro ramos_231): 1.7
- isoTOP-ABPP ratio (reactivity profile), P24752_C119 ([6]; 500 μm in-vitro ramos): 1.1
- isoTOP-ABPP ratio (reactivity profile), P24752_C119 ([6]; 500 μm in-vitro ramos_231): 1.1

SMILES: CCN(CC)c1ccc(S(N)(=O)=O)cc1NC(=O)CCl [compound 30]
- isoTOP-ABPP ratio (reactivity profile), P24752_C413 ([1]; 500 μm in-vitro ramos): 1.1
- isoTOP-ABPP reactivity ratio, P24752_C413 ([1]; in-vitro_ramos): 1.9
- isoTOP-ABPP reactivity ratio, Q15306_C194 [2]: 1.7
- isoTOP-ABPP ratio (reactivity profile), P48735_C308 ([3]; 500 μm in-vitro ramos): 0.7
- isoTOP-ABPP ratio (reactivity profile), Q16763_C118 ([4]; 500 μm in-vitro ramos): 0.7
- isoTOP-ABPP reactivity ratio, Q16763_C118 ([4]; in-vitro_ramos): 1.1
- isoTOP-ABPP ratio (reactivity profile), P24752_C126 ([5]; 500 μm in-vitro ramos): 1.1
- isoTOP-ABPP reactivity ratio, P24752_C126 ([5]; in-vitro_ramos): 1.6
- isoTOP-ABPP ratio (reactivity profile), P24752_C119 ([6]; 500 μm in-vitro ramos): 0.7
- isoTOP-ABPP reactivity ratio, P24752_C119 ([6]; in-vitro_ramos): 0.9

SMILES: C=CC(=O)N(Cc1cccnc1)c1cc(C(F)(F)F)cc(C(F)(F)F)c1 [compound 31]
- isoTOP-ABPP reactivity ratio, P24752_C413 ([1]; in-vitro_ramos): 1.0
- isoTOP-ABPP reactivity ratio, P24752_C413 ([1]; in-vitro_ramos_231): 1.6
- isoTOP-ABPP reactivity ratio, Q15306_C194 [2]: 1.1
- isoTOP-ABPP reactivity ratio, P48735_C308 ([3]; in-vitro_ramos): 1.1
- isoTOP-ABPP reactivity ratio, P48735_C308 ([3]; in-vitro_ramos_231): 1.3
- isoTOP-ABPP reactivity ratio, Q16763_C118 ([4]; in-vitro_ramos): 0.8
- isoTOP-ABPP reactivity ratio, Q16763_C118 ([4]; in-vitro_ramos_231): 0.9
- isoTOP-ABPP reactivity ratio, P24752_C126 ([5]; in-vitro_ramos_231): 1.1
- isoTOP-ABPP reactivity ratio, P24752_C119 ([6]; in-vitro_ramos): 0.7
- isoTOP-ABPP reactivity ratio, P24752_C119 ([6]; in-vitro_ramos_231): 1.3

SMILES: C=CC(=O)Nc1cc(F)c(N2CCN(C(=O)OC(C)(C)C)CC2)c(F)c1 [compound 38]
- isoTOP-ABPP reactivity ratio, P24752_C413 ([1]; in-vitro_ramos): 20.0
- isoTOP-ABPP reactivity ratio, P24752_C413 ([1]; in-vitro_ramos_231): 1.1
- isoTOP-ABPP reactivity ratio, Q15306_C194 [2]: 2.1
- isoTOP-ABPP reactivity ratio, P48735_C308 ([3]; in-vitro_ramos_231): 1.2
- isoTOP-ABPP reactivity ratio, Q16763_C118 ([4]; in-vitro_ramos): 1.0
- isoTOP-ABPP reactivity ratio, Q16763_C118 ([4]; in-vitro_ramos_231): 1.0
- isoTOP-ABPP reactivity ratio, P24752_C126 ([5]; in-vitro_ramos): 1.4
- isoTOP-ABPP reactivity ratio, P24752_C126 ([5]; in-vitro_ramos_231): 1.0
- isoTOP-ABPP reactivity ratio, P24752_C119 ([6]; in-vitro_ramos): 1.7
- isoTOP-ABPP reactivity ratio, P24752_C119 ([6]; in-vitro_ramos_231): 1.0

SMILES: COc1cc(NC(=O)CCl)cc(OC)c1 [compound 43]
- isoTOP-ABPP reactivity profile ratio, P24752_C413 ([1]; in-vitro_ramos_231): 15.9
- isoTOP-ABPP reactivity profile ratio, Q15306_C194 [2]: 3.0
- isoTOP-ABPP reactivity profile ratio, P48735_C308 ([3]; in-vitro_ramos_231): 0.8
- isoTOP-ABPP reactivity profile ratio, Q16763_C118 ([4]; in-vitro_ramos): 1.0
- isoTOP-ABPP reactivity profile ratio, P24752_C126 ([5]; in-vitro_ramos): 20.0
- isoTOP-ABPP reactivity profile ratio, P24752_C119 ([6]; in-vitro_ramos): 1.1
- isoTOP-ABPP reactivity profile ratio, P24752_C119 ([6]; in-vitro_ramos_231): 1.8

SMILES: O=C(CCl)Nc1ccc(-c2ccccc2)cc1 [compound 52]
- isoTOP-ABPP reactivity profile ratio, P24752_C413 ([1]; in-vitro_ramos): 1.5
- isoTOP-ABPP reactivity profile ratio, P24752_C413 ([1]; in-vitro_ramos_231): 1.9
- isoTOP-ABPP reactivity profile ratio, Q15306_C194 [2]: 1.4
- isoTOP-ABPP reactivity profile ratio, P48735_C308 ([3]; in-vitro_ramos_231): 1.1
- isoTOP-ABPP reactivity profile ratio, Q16763_C118 ([4]; in-vitro_ramos_231): 1.2
- isoTOP-ABPP reactivity profile ratio, P24752_C126 ([5]; in-vitro_ramos_231): 1.3
- isoTOP-ABPP reactivity profile ratio, P24752_C119 ([6]; in-vitro_ramos): 0.8
- isoTOP-ABPP reactivity profile ratio, P24752_C119 ([6]; in-vitro_ramos_231): 1.4
